Experimental data taken from a melting point compilation (Tetko et al.; mined from patent text by program, amines drawn as free bases though some values may be those of a salt).

| melting point | Structure (SMILES) |
| --- | --- |
| 144 to 145 °C | O=C(O)Cc1ccc(CCOc2ccc(CC3SC(=O)NC3=O)cc2)nc1 (stereo not drawn) |
| 88 to 89 °C | O=C/C=C/C=C/c1ccc(OCC(F)(F)C(F)F)nc1 |
| 54 to 55 °C | CCCCCCCCCCCCCCCCCCOc1cc(C(=O)OC)cc(C(=O)OC)c1 |
| 160 °C | N[C@H]1CCCC[C@@H]1Nc1ccnc2cc(Cl)ccc12 |
| 45 to 46 °C | c1ccc(-c2cncs2)cc1 |
| 168 to 169 °C | CC(C)n1c(=O)c(C(=O)O)cc2ccccc21 |
| 110 to 126 °C | CCOCc1cnc2c([N+](=O)[O-])cccc2c1Cl |
| 120 °C | CC(=O)OCCCN1CCC(CNC(=O)[C@@H]2CCCN2S(=O)(=O)c2ccc(Cl)c(COc3cccc4c(-n5cncn5)cc(C)nc34)c2Cl)CC1 |
| 93 to 94 °C | O=C1CCC(=O)C1C(=O)CCc1ccc2c(c1)OCO2 |
| 41 to 42 °C | O=C(O)CCCCCCCCCCc1cccs1 |
| 94 to 95 °C | Cc1c(OCC(O)CN2CCOCC2)noc1-c1ccccc1 (stereo not drawn) |
| 199 to 200 °C | CCOC(=O)c1cnc2n(c1=O)C(C)CCC2C(=S)NC (stereo not drawn) |
| 135 to 136 °C | CS(=O)c1ccc(C2=C(c3ccccc3)C(=O)C(C)(C)O2)c(Cl)c1 (stereo not drawn) |
| 99.5 to 101 °C | CCCCNCc1cccc(OCCCNc2nc(N)nn2C)c1 |
| 109 to 110 °C | CCC1(CC)OC(c2ccc(S(C)(=O)=O)cc2)=CC1=O |
| 138 to 143 °C | c1ccc(C(c2ccccc2)(c2ncccn2)n2ccnc2)cc1 |
| 245 °C | CC(c1ccccc1)N(C=O)C(C#N)C=O (single isomer, unassigned; (+)) |
| 265 °C | CS(=O)C1C=Nc2cc(F)ccc2C1=O (stereo not drawn) |
| 133 to 135 °C | O=C(c1ccccc1F)C1(O)CCNCC1 |
| 174 to 175 °C | CCC(=O)Nc1cccc(NC(=O)C(C)C)c1 |
| 130 °C | CCCC(=O)NN=Cc1ccnc2ccccc12 |
| 251 to 253 °C | Oc1ccc(C2OCC3(CO2)COC(c2ccc(O)cc2)OC3)cc1 (stereo not drawn) |
| 204 to 205 °C | COC(=O)c1cccc2c1[nH]c1c3cc(Br)ccc3oc21 |

| melting point | Structure (SMILES) |
| --- | --- |
| 154 to 155 °C | COc1cccc([C@H]2O[C@H](CC(=O)Nc3ccsc3C(=O)O)C(=O)N(CC(C)(C)CO)c3ccc(Cl)cc32)c1OC |
| 176 °C | Cc1ccc(-c2c(Cl)ncn2-c2ccc(S(C)(=O)=O)cc2)cc1F |
| 149 to 152 °C | CCCOC(=O)C1=C(C)NC(CO)=C(C(=O)OC)C1c1ccccc1C#N (stereo not drawn) |
| 68 °C | CCCCCCCCC=CCCCCCCCC(N)=O |
| 231 to 232 °C | CC(C)(C)C(NC(=O)c1cccc(F)c1)Nc1c(Nc2cccnc2)c(=O)c1=O (stereo not drawn) |
| 203 to 207 °C | CCCC1=C(C(=O)OC)C(c2ccccc2Cl)c2c[nH]nc2N1 (stereo not drawn) |
| 142 to 144 °C | COc1ccc(-c2[nH]cnc2-c2cc(OC)c(N)c(OC)c2)cc1O |
| 153 °C | CNC(=O)n1c(=O)n(CCCN2CCN(C(c3ccccc3)c3ccccc3)CC2)c2ccccc21 |
| 158 to 161 °C | Cc1nc(N2CCN(CC(C)C)C2=O)sc1C(=O)NCc1ccn(C)n1 |
| 197 to 198 °C | CC(C)N1CCC2(CC1)CSC1=C(O2)c2ccccc2C(=O)C1=O |
| 145 to 147 °C | COC(=O)C1=C(C)NC(c2scnc2C)=NC1c1ccc(F)cc1Cl (stereo not drawn) |
| 92 to 95 °C | Cc1c(-c2ccc(Cl)cc2Cl)nc(C#N)n1S(=O)(=O)N(C)C |
| 113 °C | CCCCCCCCOC(=O)c1ccc(C(=O)O)cc1 |
| 140 to 143 °C | C=CCNc1c(C(=O)OCC)cnc2cn(C)nc12 |
| 173 to 174 °C | Clc1c(OCCN2CCCCC2)ccc2cc3ccc(OCCN4CCCCC4)c(Cl)c3nc12 |
| 155 to 157 °C | O=C(O)c1cnn(-c2c(Cl)cc(C(F)(F)F)cc2Cl)n1 |
| 177 °C | Cn1c(=O)cc(-c2ccccc2)c2cc(C(COCc3ccc(Cl)cc3)(c3ccc(Cl)cc3)n3ccnc3)ccc21 (stereo not drawn) |
| 211 to 212 °C | OC1CSC(Oc2cccc(-c3cncc(F)c3)c2)C(O)C1O (stereo not drawn) |
| 75 °C | CCc1ccc(/C(Cl)=C/c2ccc(Br)cc2)cc1 |
| 171 to 173 °C | CCC(CNC(=O)OC(C)(C)C)n1cnc2c(N)nc3ccccc3c21 (stereo not drawn) |
| 53 to 54.5 °C | COCCCCCC(=NO)c1ccc(Cl)c(Cl)c1 |
| 225 to 230 °C | CS(=O)(=O)Nc1ccc(NC(=O)c2c[nH]c(=S)n2C2CCc3c(F)cc(F)cc3C2)cc1 (stereo not drawn) |
| 228 to 230 °C | COc1ccc(-c2c(Cl)c(CN3CCCC3=O)nc3sc4cnccc4c23)cc1OC |

| melting point | Structure (SMILES) |
| --- | --- |
| 263 to 265 °C | CN1COc2cc3c4c(cccc4c21)C(=O)N(O)C3=O |
| 41.9 to 42.7 °C | CCCCCCCCCCCCCCCCC[C@@H]1OC[C@@H](COC(=O)CCCCCOS(=O)(=O)c2ccc(C)cc2)O1 (relative stereo) |
| 177 to 180 °C | Cc1ccc(S(=O)(=O)N(CCN(CC(=O)O)S(=O)(=O)c2ccc(C)cc2)CCN(CC(=O)O)S(=O)(=O)c2ccc(C)cc2)cc1 |
| 75 to 76 °C | CC1(C)CC(=O)C1(Cl)CC(Cl)(Cl)Cl (stereo not drawn) |
| 223 to 228 °C | N#CC(=Cc1cc(O)c(O)c([N+](=O)[O-])c1)C(=O)NCCCO |
| 259 to 260 °C | O=C(O)c1cc(Cl)c(-n2ccc(C(F)(F)F)cc2=O)c(Cl)c1 |
| 178 °C | CS(=O)(=O)c1ccc(-c2ccccc2[N+](=O)[O-])cc1 |
| 66 to 67 °C | CCCCCCCCSc1nc2cc(Cl)ccc2[nH]1 |
| 100 to 101 °C | Cc1sc(-c2ccccc2)nc1COc1ccc(CCl)cc1 |
| 135 to 136 °C | Cc1ccc(S(=O)(=O)N2CCCC(CS(=O)(=O)c3ccccc3)C2)cc1 (stereo not drawn) |
| 203 to 205 °C | O=C1c2ccccc2N(Cc2ccccc2)C2=NCCN12 |
| 113 to 114 °C | C=CCNc1nc(Cl)c2ccn(C)c2n1 |
| 139 to 141 °C | O=C(O)c1ncc(Cl)nc1Cl |
| 82 to 84 °C | Cc1cc(Oc2cccc(C(F)(F)F)c2)nn1C(=O)Nc1ccc(C(F)(F)F)cc1 |
| 182 to 183 °C | Oc1ccc(C2=C(c3ccc(OC4CCCCO4)cc3)CCCc3cc(OC4CCCCO4)ccc32)cc1 (stereo not drawn) |
| 202 to 203 °C | CS(=O)(=O)c1ccc(-c2cnn(C3CCC3)c(=O)c2-c2ccc(F)cc2)cc1 |
| 79 to 81 °C | CCCCC1OC(=O)c2cc(NC3CCCC3)ccc21 (stereo not drawn) |
| 237 to 242 °C | Nc1c2c(nc3cnccc13)CCCC2=O |
| 186 to 187 °C | CC(C)=CC(=O)N1CCN(C(Cc2cccc(O)c2)c2ccccc2)CC1 (stereo not drawn) |
| 141 °C | CCC(=O)NC1CCc2c(ccc(OC)c2N)C1 (stereo not drawn) |
| 275 to 276 °C | CCOC(=O)C(=O)Nc1cc2c3c(cccc3c1)C(=O)OC2=O |
| 210 °C | NS(=O)(=O)c1cccc(-c2cc(-c3nc(-c4ccc(C(F)(F)F)cc4F)cc(C(F)(F)F)n3)ccn2)c1 |
| 146 to 149 °C | CS(=O)(=O)c1ccc(-c2cccn2-c2ccc(F)c(Cl)c2)cc1 |

| Structure (SMILES) | melting point |
| --- | --- |
| CCNC(=O)N1N=C(c2ccc([N+](=O)[O-])cc2)c2cc(Cl)ccc2CC1C (stereo not drawn) | 170 to 172 °C |
| COC(=O)C1C(Sc2ccccc2)CC2CCC1N2C (stereo not drawn) | 55 to 57 °C |
| CCN1C(=O)C(C)(C)N=C(c2ccccc2F)c2cc([N+](=O)[O-])cc(Cl)c21 | 156 °C |
| CC1(C)C(C=C(F)C(=O)OCC(F)(F)F)C1C(=O)OC(C#N)c1ccc(F)c(Oc2ccccc2)c1 (stereo not drawn) | 85 °C |
